Molecular target: human TLR7 (Homo sapiens (Human), UniProt Q9NYK1)
Experiment: Reporter Gene Assay (HEK293 stably transfected with human TLR7 and NF-kB-driven luciferase reporter)
Type: cell-based
Settings: HEK293 cells stably transfected with human TLR7 and pNifty-Luciferase; 7 hours incubation; EC50 relative to the activity of resiquimod set to 100%
Method: As a control assay, normal Hek293 transfected with pNifty-Luc were used. […] Bright-Glo™ Luciferase assay buffer and substrate were supplied by Promega #E263B and #E264B (assay substrate and buffer respectively). 384 well clear-bottom plates were supplied by Greiner bio-one (#789163-G) and were custom bar-coded plates.
Cells were plated at 25,000 cells/well in 384-well plates in a final volume of 50 μl of media. Cells were allowed to adhere to the plates after overnight (18 hours) culture at 37° C. and 5% CO2. Serially diluted experimental and positive control compounds were then dispensed to each well and incubated for 7 hours at 37° C. and 5% CO2. Cells stimulated with DMSO alone also serve as negative controls. After the incubation, 30 μl of the pre-mix assay buffer and substrate buffer were added to each well according to manufacturer's instructions. The luminescence signal was read on a CLIPR machine with an integration time of 20 seconds per plate.

Chain of human TLR7 (Q9NYK1 27-1049): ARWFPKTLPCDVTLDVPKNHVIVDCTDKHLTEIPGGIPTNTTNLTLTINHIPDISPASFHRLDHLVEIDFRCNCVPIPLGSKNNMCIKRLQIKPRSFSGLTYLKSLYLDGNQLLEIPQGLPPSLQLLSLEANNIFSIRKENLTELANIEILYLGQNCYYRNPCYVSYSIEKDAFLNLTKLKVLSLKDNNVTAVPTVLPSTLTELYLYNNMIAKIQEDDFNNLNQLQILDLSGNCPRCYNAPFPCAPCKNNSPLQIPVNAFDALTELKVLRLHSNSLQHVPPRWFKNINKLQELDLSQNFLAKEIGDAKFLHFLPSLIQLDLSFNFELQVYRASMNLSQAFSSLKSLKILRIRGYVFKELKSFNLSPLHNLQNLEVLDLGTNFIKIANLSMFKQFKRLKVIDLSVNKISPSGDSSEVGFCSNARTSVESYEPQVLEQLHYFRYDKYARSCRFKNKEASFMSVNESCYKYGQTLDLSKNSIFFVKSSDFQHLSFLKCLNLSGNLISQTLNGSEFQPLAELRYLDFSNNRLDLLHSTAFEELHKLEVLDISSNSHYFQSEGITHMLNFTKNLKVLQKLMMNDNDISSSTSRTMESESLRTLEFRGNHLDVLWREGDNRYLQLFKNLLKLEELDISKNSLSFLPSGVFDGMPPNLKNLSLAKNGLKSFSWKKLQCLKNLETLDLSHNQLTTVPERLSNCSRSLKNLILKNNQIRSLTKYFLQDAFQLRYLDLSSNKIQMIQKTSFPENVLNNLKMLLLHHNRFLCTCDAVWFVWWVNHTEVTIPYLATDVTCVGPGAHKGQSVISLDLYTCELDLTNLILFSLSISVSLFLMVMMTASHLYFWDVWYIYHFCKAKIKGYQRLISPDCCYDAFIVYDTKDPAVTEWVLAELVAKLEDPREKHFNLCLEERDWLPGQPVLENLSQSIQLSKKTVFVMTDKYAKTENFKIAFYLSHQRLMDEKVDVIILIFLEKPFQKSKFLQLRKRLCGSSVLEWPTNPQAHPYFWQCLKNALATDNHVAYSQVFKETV

## CCCCCNc1nc(N)nc2ccn(Cc3ccc(C(=O)OC)cc3OC)c12 [Example 1, methyl 4-((2-amino-4-(pentylamino)-5H-pyrrolo[3,2-d]pyrimidin-5-yl)methyl)-3-methoxybenzoate]
  EC50: 0.01 µM

## CCCCCNc1nc(N)nc2ccn(Cc3ccc(C(=O)OCCN(C)C)cc3OC)c12 [Example 2, 2-(dimethylamino)ethyl 4-((2-amino-4-(pentylamino)-5H-pyrrolo[3,2-d]pyrimidin-5-yl)methyl)-3-methoxybenzoate]
  EC50: < 0.005 µM

## CCCCCNc1nc(N)nc2ccn(Cc3ccc(C(=O)OCCOCCN(C)C)cc3OC)c12 [Example 3, 2-(2-(dimethylamino)ethoxy)ethyl 4-((2-amino-4-(pentylamino)-5H-pyrrolo[3,2-d]pyrimidin-5-yl)methyl)-3-methoxybenzoate]
  EC50: 0.02 µM

## CCCCCNc1nc(N)nc2ccn(Cc3cc(C(=O)OC)ccc3OC)c12 [Example 4, methyl 3-((2-amino-4-(pentylamino)-5H-pyrrolo[3,2-d]pyrimidin-5-yl)methyl)-4-methoxybenzoate]
  EC50: < 0.005 µM

## CCCCCNc1nc(N)nc2ccn(Cc3cc(CC(=O)OC)ccc3OC)c12 [Example 5, methyl 2-(3-((2-amino-4-(pentylamino)-5H-pyrrolo[3,2-d]pyrimidin-5-yl)methyl)-4-methoxyphenyl)acetate]
  EC50: 0.01 µM

## CCCCCNc1nc(N)nc2ccn(Cc3cc(CCC(=O)OCC)ccc3OC)c12 [Example 6, ethyl 3-(3-((2-amino-4-(pentylamino)-5H-pyrrolo[3,2-d]pyrimidin-5-yl)methyl)-4-methoxyphenyl)propanoate]
  EC50: 0.03 µM

## CCCCCNc1nc(N)nc2ccn(Cc3cc(OCC(=O)OCC(=O)N4CCOCC4)ccc3OC)c12 [Example 8, 2-morpholino-2-oxoethyl 2-(3-((2-amino-4-(pentylamino)-5H-pyrrolo[3,2-d]pyrimidin-5-yl)methyl)-4-methoxyphenoxy)acetate]
  EC50: 0.04 µM

## CCCCCNc1nc(N)nc2ccn(Cc3cc(CC(=O)OCC(=O)N4CCOCC4)ccc3OC)c12 [Example 9, 2-morpholino-2-oxoethyl 2-(3-((2-amino-4-(pentylamino)-5H-pyrrolo[3,2-d]pyrimidin-5-yl)methyl)-4-methoxyphenyl)acetate]
  EC50: 0.01 µM

## CCCCCNc1nc(N)nc2ccn(Cc3ccc(CC(=O)OCC(=O)N4CCOCC4)cc3OC)c12 [Example 10, 2-morpholino-2-oxoethyl 2-(4-((2-amino-4-(pentylamino)-5H-pyrrolo[3,2-d]pyrimidin-5-yl)methyl)-3-methoxyphenyl)acetate]
  EC50: 0.006 µM

## CCCCCNc1nc(N)nc2ccn(Cc3ccc(CCC(=O)OCC(=O)N4CCOCC4)cc3OC)c12 [Example 11, 2-(morpholin-4-yl)-2-oxoethyl 3-(4-{[2-amino-4-(pentylamino)-5H-pyrrolo[3,2-d]pyrimidin-5-yl]methyl}-3-methoxyphenyl)propanoate]
  EC50: 0.02 µM

## CCCC[C@@H](CO)Nc1nc(N)nc2ccn(Cc3cc(CCC(=O)OCC(=O)N4CCOCC4)ccc3OC)c12 [Example 12, (S)-2-morpholino-2-oxoethyl 3-(3-((2-amino-4-((1-hydroxyhexan-2-yl)amino)-5H-pyrrolo[3,2-d]pyrimidin-5-yl)methyl)-4-methoxyphenyl)propanoate]
  EC50: 0.03 µM

## CCCC[C@@H](CO)Nc1nc(N)nc2ccn(Cc3ccc(CC(=O)OCC(=O)N4CCOCC4)cc3OC)c12 [Example 13, (S)-2-morpholino-2-oxoethyl 2-(4-((2-amino-4-((1-hydroxyhexan-2-yl)amino)-5H-pyrrolo[3,2-d]pyrimidin-5-yl)methyl)-3-methoxyphenyl)acetate]
  EC50: 0.01 µM

## CCCC[C@@H](CO)Nc1nc(N)nc2ccn(Cc3cc(CC(=O)OCC(=O)N4CCOCC4)ccc3OC)c12 [Example 14, (S)-2-morpholino-2-oxoethyl 2-(3-((2-amino-4-((1-hydroxyhexan-2-yl)amino)-5H-pyrrolo[3,2-d]pyrimidin-5-yl)methyl)-4-methoxyphenyl)acetate]
  EC50: 0.01 µM

## CCCC[C@@H](CO)Nc1nc(N)nc2ccn(Cc3ccc(CCC(=O)OCC(=O)N4CCOCC4)cc3OC)c12 [Example 15, (S)-2-morpholino-2-oxoethyl 3-(4-((2-amino-4-((1-hydroxyhexan-2-yl)amino)-5H-pyrrolo[3,2-d]pyrimidin-5-yl)methyl)-3-methoxyphenyl)propanoate]
  EC50: 0.02 µM

## CCCCCNc1nc(N)nc2ccn(Cc3cc(/C=C/C(=O)OCC(=O)N4CCOCC4)ccc3OC)c12 [Example 16, 2-(morpholin-4-yl)-2-oxoethyl (2E)-3-(3-{[2-amino-4-(pentylamino)-5H-pyrrolo[3,2-d]pyrimidin-5-yl]methyl}-4-methoxyphenyl)prop-2-enoate]
  EC50: < 0.005 µM

## CCCCCNc1nc(N)nc2ccn(Cc3cc(CCC(=O)OCC(=O)N4CCOCC4)ccc3OC)c12 [Example 17, 2-(morpholin-4-yl)-2-oxoethyl 3-(3-{[2-amino-4-(pentylamino)-5H-pyrrolo[3,2-d]pyrimidin-5-yl]methyl}-4-methoxyphenyl)propanoate]
  EC50: 0.05 µM

## CCCCCNc1nc(N)nc2ccn(Cc3ccc(CC(=O)OCC(=O)OCc4ccccc4)cc3OC)c12 [Example 18, 2-(benzyloxy)-2-oxoethyl 2-(4-{[2-amino-4-(pentylamino)-5H-pyrrolo[3,2-d]pyrimidin-5-yl]methyl}-3-methoxyphenyl)acetate]
  EC50: 0.2 µM

## CCCCCNc1nc(N)nc2ccn(Cc3ccc(CC(=O)OCC(=O)N(CCC)CCC)cc3OC)c12 [Example 19, 2-(dipropylcarbamoyl)methyl 2-(4-{[2-amino-4-(pentylamino)-5H-pyrrolo[3,2-d]pyrimidin-5-yl]methyl}-3-methoxyphenyl)acetate]
  EC50: 0.2 µM

## CCCCCNc1nc(N)nc2ccn(Cc3ccc(CC(=O)OCC(=O)N(C)C)cc3OC)c12 [Example 20, 2-(dimethylamino)-2-oxoethyl 2-(4-((2-amino-4-(pentylamino)-5H-pyrrolo[3,2-d]pyrimidin-5-yl)methyl)-3-methoxyphenyl)acetate]
  EC50: 0.08 µM

## CCCCCNc1nc(N)nc2ccn(Cc3ccc(CC(=O)OCCN4CCN(C)CC4)cc3OC)c12 [Example 21, 2-(4-methylpiperazin-1-yl)ethyl 2-(4-{[2-amino-4-(pentylamino)-5H-pyrrolo[3,2-d]pyrimidin-5-yl]methyl}-3-methoxyphenyl)acetate]
  EC50: < 0.005 µM

## CCCCCNc1nc(N)nc2ccn(Cc3ccc(CC(=O)OCCO)cc3OC)c12 [Example 22, 2-hydroxyethyl 2-(4-{[2-amino-4-(pentylamino)-5H-pyrrolo[3,2-d]pyrimidin-5-yl]methyl}-3-methoxyphenyl)acetate]
  EC50: < 0.006 µM

## CCCCCNc1nc(N)nc2ccn(Cc3ccc(CC(=O)OCCCCN(C)C)cc3OC)c12 [Example 23, 4-(dimethylamino)butyl 2-(4-{[2-amino-4-(pentylamino)-5H-pyrrolo[3,2-d]pyrimidin-5-yl]methyl}-3-methoxyphenyl)acetate]
  EC50: 0.007 µM

## CCCCCNc1nc(N)nc2ccn(Cc3ccc(CC(=O)OCCN4CCOCC4)cc3OC)c12 [Example 24, 2-(morpholin-4-yl)ethyl 2-(4-{[2-amino-4-(pentylamino)-5H-pyrrolo[3,2-d]pyrimidin-5-yl]methyl}-3-methoxyphenyl)acetate]
  EC50: 0.008 µM

## CCCCCNc1nc(N)nc2ccn(Cc3ccc(CC(=O)OCCN4CCNCC4)cc3OC)c12 [Example 25, 2-(piperazin-1-yl)ethyl 2-(4-{[2-amino-4-(pentylamino)-5H-pyrrolo[3,2-d]pyrimidin-5-yl]methyl}-3-methoxyphenyl)acetate]
  EC50: 0.03 µM

## CCCCCNc1nc(N)nc2ccn(Cc3cc(OCC(=O)OCCN(C)C)ccc3OC)c12 [Example 26, 2-(dimethylamino)ethyl 2-(3-{[2-amino-4-(pentylamino)-5H-pyrrolo[3,2-d]pyrimidin-5-yl]methyl}-4-methoxyphenoxy)acetate]
  EC50: 0.3 µM

## CCCCCNc1nc(N)nc2ccn(Cc3cc(OCC(=O)OCCN4CCNCC4)ccc3OC)c12 [Example 27, 2-(piperazin-1-yl)ethyl 2-(3-{[2-amino-4-(pentylamino)-5H-pyrrolo[3,2-d]pyrimidin-5-yl]methyl}-4-methoxyphenoxy)acetate]
  EC50: 0.5 µM

## CCCCCNc1nc(N)nc2ccn(Cc3cc(OCC(=O)OCCN4CCOCC4)ccc3OC)c12 [Example 28, 2-(morpholin-4-yl)ethyl 2-(3-{[2-amino-4-(pentylamino)-5H-pyrrolo[3,2-d]pyrimidin-5-yl]methyl}-4-methoxyphenoxy)acetate]
  EC50: 0.4 µM

## CCCCCNc1nc(N)nc2ccn(Cc3cc(OCC(=O)OCCN4CCN(C)CC4)ccc3OC)c12 [Example 29, 2-(4-methylpiperazin-1-yl)ethyl 2-(3-{[2-amino-4-(pentylamino)-5H-pyrrolo[3,2-d]pyrimidin-5-yl]methyl}-4-methoxyphenoxy)acetate]
  EC50: 0.2 µM

## CCCC[C@@H](CO)Nc1nc(N)nc2ccn(Cc3cc(CN4CCNCC4)ccc3OC)c12 [Example 30, (S)-2-((2-amino-5-(2-methoxy-5-(piperazin-1-ylmethyl)benzyl)-5H-pyrrolo[3,2-d]pyrimidin-4-yl)amino)hexan-1-ol]
  EC50: 0.08 µM

## CCCCCNc1nc(N)nc2ccn(Cc3cc(CN4CCNCC4)ccc3OC)c12 [Example 31, 5-(2-methoxy-5-(piperazin-1-ylmethyl)benzyl)-N4-pentyl-5H-pyrrolo[3,2-d]pyrimidine-2,4-diamine]
  EC50: 0.02 µM

## CCCCCNc1nc(N)nc2ccn(Cc3ccc(CN4CCNCC4)cc3OC)c12 [Example 32, 5-(2-methoxy-4-(piperazin-1-ylmethyl)benzyl)-N4-pentyl-5H-pyrrolo[3,2-d]pyrimidine-2,4-diamine]
  EC50: < 0.005 µM
